Experimental data taken from PubChem BioAssay (NCI).
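1) Cells in 96-well plates. 2) Compound, 48 h, 5 concentrations. 3) Linear interpolation between surrounding doses. 4) Unreached endpoint = highest concentration. GI50 = concentration required for 50% inhibition of growth. TGI: total growth inhibition.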

What was measured:
Experiment in all cases: inhibition of tumour cell growth, NCI panel, 48 h
NCI-H23 lung = test system: NCI-H23 lung
UACC-62 melanoma = test system: UACC-62 melanoma
NCI-H522 lung = test system: NCI-H522 lung
HL-60(TB) leukemia = test system: HL-60(TB) leukemia
UO-31 renal = test system: UO-31 renal
DU-145 prostate = test system: DU-145 prostate
SNB-19 CNS = test system: SNB-19 CNS
CAKI-1 renal = test system: CAKI-1 renal
SN12C renal = test system: SN12C renal
MCF7 breast = test system: MCF7 breast
MDA-MB-435 = test system: MDA-MB-435
TK-10 renal = test system: TK-10 renal
SK-OV-3 ovarian = test system: SK-OV-3 ovarian
SK-MEL-2 melanoma = test system: SK-MEL-2 melanoma
CCRF-CEM leukemia = test system: CCRF-CEM leukemia
T-47D breast = test system: T-47D breast
COLO 205 colon = test system: COLO 205 colon
BT-549 breast = test system: BT-549 breast
KM12 colon = test system: KM12 colon
HCT-116 colon = test system: HCT-116 colon
OVCAR-5 ovarian = test system: OVCAR-5 ovarian
HCT-15 colon = test system: HCT-15 colon
HT29 colon = test system: HT29 colon
OVCAR-8 ovarian = test system: OVCAR-8 ovarian
SW-620 colon = test system: SW-620 colon
HS 578T breast = test system: HS 578T breast
A549 NSCLC = test system: A549 NSCLC
MALME-3M melanoma = test system: MALME-3M melanoma
K-562 leukemia = test system: K-562 leukemia
RXF 393 renal = test system: RXF 393 renal
EKVX NSCLC = test system: EKVX NSCLC
RPMI-8226 leukemia = test system: RPMI-8226 leukemia
SF-268 CNS = test system: SF-268 CNS
NCI-H226 lung = test system: NCI-H226 lung
SK-MEL-5 melanoma = test system: SK-MEL-5 melanoma
M14 melanoma = test system: M14 melanoma
NCI-H460 lung = test system: NCI-H460 lung
LOX IMVI melanoma = test system: LOX IMVI melanoma
HCC-2998 colon = test system: HCC-2998 colon
MOLT-4 leukemia = test system: MOLT-4 leukemia
NCI/ADR-RES ovarian = test system: NCI/ADR-RES ovarian
ACHN renal = test system: ACHN renal
HOP-92 NSCLC = test system: HOP-92 NSCLC
UACC-257 melanoma = test system: UACC-257 melanoma
SF-539 CNS = test system: SF-539 CNS
786-0 renal = test system: 786-0 renal
OVCAR-4 ovarian = test system: OVCAR-4 ovarian
U251 CNS = test system: U251 CNS
PC-3 prostate = test system: PC-3 prostate
IGROV1 ovarian = test system: IGROV1 ovarian
OVCAR-3 ovarian = test system: OVCAR-3 ovarian
SK-MEL-28 melanoma = test system: SK-MEL-28 melanoma
SF-295 CNS = test system: SF-295 CNS
SR leukemia = test system: SR leukemia
MDA-MB-231 breast = test system: MDA-MB-231 breast
HOP-62 NSCLC = test system: HOP-62 NSCLC

O=S(=O)(Nc1ccc(I)c(Cl)c1)c1ccc(-c2cnc(C3CC3)o2)cc1
GI50 (NCI-H23 lung): 2.68 µM | TGI (NCI-H23 lung): 14 µM | GI50 (UACC-62 melanoma): 0.475 µM | TGI (UACC-62 melanoma): 12.8 µM | GI50 (NCI-H522 lung): 0.557 µM | TGI (NCI-H522 lung): 7.49 µM | GI50 (HL-60(TB) leukemia): 0.461 µM | TGI (HL-60(TB) leukemia): 3.93 µM | GI50 (UO-31 renal): 2.71 µM | TGI (UO-31 renal): 15.5 µM | GI50 (DU-145 prostate): 2.63 µM | TGI (DU-145 prostate): 11.8 µM | GI50 (SNB-19 CNS): 1.69 µM | TGI (SNB-19 CNS): 17 µM | GI50 (CAKI-1 renal): 0.658 µM | TGI (CAKI-1 renal): 14.9 µM | GI50 (SN12C renal): 3.17 µM | TGI (SN12C renal): 15.2 µM | GI50 (MCF7 breast): 0.454 µM | TGI (MCF7 breast): 12 µM | GI50 (MDA-MB-435): 0.259 µM | TGI (MDA-MB-435): 0.817 µM | GI50 (TK-10 renal): 3.15 µM | TGI (TK-10 renal): 17 µM | GI50 (SK-OV-3 ovarian): 3.35 µM | TGI (SK-OV-3 ovarian): 17.6 µM | GI50 (SK-MEL-2 melanoma): 1.31 µM | TGI (SK-MEL-2 melanoma): 16.7 µM | GI50 (CCRF-CEM leukemia): 0.877 µM | TGI (CCRF-CEM leukemia): 23.1 µM | GI50 (T-47D breast): 1.52 µM | TGI (T-47D breast): 16.2 µM | GI50 (COLO 205 colon): 3.04 µM | TGI (COLO 205 colon): 15.6 µM | GI50 (BT-549 breast): 1.37 µM | TGI (BT-549 breast): 16 µM | GI50 (KM12 colon): 0.888 µM | TGI (KM12 colon): 12.4 µM | GI50 (HCT-116 colon): 1.13 µM | TGI (HCT-116 colon): 11.9 µM | GI50 (OVCAR-5 ovarian): 3.06 µM | TGI (OVCAR-5 ovarian): 13.3 µM | GI50 (HCT-15 colon): 0.582 µM | TGI (HCT-15 colon): 12.3 µM | GI50 (HT29 colon): 0.994 µM | TGI (HT29 colon): 5.8 µM | GI50 (OVCAR-8 ovarian): 3.08 µM | TGI (OVCAR-8 ovarian): 15.3 µM | GI50 (SW-620 colon): 0.65 µM | TGI (SW-620 colon): 13.4 µM | GI50 (HS 578T breast): 0.416 µM | TGI (HS 578T breast): 3.01 µM | GI50 (A549 NSCLC): 1.57 µM | TGI (A549 NSCLC): 12.7 µM | GI50 (MALME-3M melanoma): 1.5 µM | TGI (MALME-3M melanoma): 23 µM | GI50 (K-562 leukemia): 0.456 µM | TGI (K-562 leukemia): 27.4 µM | GI50 (RXF 393 renal): 1.49 µM | TGI (RXF 393 renal): 7.55 µM | GI50 (EKVX NSCLC): 2.85 µM | TGI (EKVX NSCLC): 15.7 µM | GI50 (RPMI-8226 leukemia): 2.61 µM | TGI (RPMI-8226 leukemia): 23.1 µM | GI50 (SF-268 CNS): 3.15 µM | TGI (SF-268 CNS): 18.9 µM | GI50 (NCI-H226 lung): 3.97 µM | TGI (NCI-H226 lung): 18.9 µM | GI50 (SK-MEL-5 melanoma): 2.7 µM | TGI (SK-MEL-5 melanoma): 13.1 µM | GI50 (M14 melanoma): 0.969 µM | TGI (M14 melanoma): 12.3 µM | GI50 (NCI-H460 lung): 1.5 µM | TGI (NCI-H460 lung): 10.2 µM | GI50 (LOX IMVI melanoma): 2.64 µM | TGI (LOX IMVI melanoma): 17.7 µM | GI50 (HCC-2998 colon): 2.37 µM | TGI (HCC-2998 colon): 11.2 µM | GI50 (MOLT-4 leukemia): 1.39 µM | TGI (MOLT-4 leukemia): 22.5 µM | GI50 (NCI/ADR-RES ovarian): 0.761 µM | TGI (NCI/ADR-RES ovarian): 6.82 µM | GI50 (ACHN renal): 3.03 µM | TGI (ACHN renal): 16.8 µM | GI50 (HOP-92 NSCLC): 0.434 µM | TGI (HOP-92 NSCLC): 5.76 µM | GI50 (UACC-257 melanoma): 3.74 µM | TGI (UACC-257 melanoma): 21.7 µM | GI50 (SF-539 CNS): 1.26 µM | TGI (SF-539 CNS): 5.23 µM | GI50 (786-0 renal): 2.57 µM | TGI (786-0 renal): 17.2 µM | GI50 (OVCAR-4 ovarian): 3.3 µM | TGI (OVCAR-4 ovarian): 14.9 µM | GI50 (U251 CNS): 1.53 µM | TGI (U251 CNS): 12.6 µM | GI50 (PC-3 prostate): 1.12 µM | TGI (PC-3 prostate): 11.7 µM | GI50 (IGROV1 ovarian): 1.45 µM | TGI (IGROV1 ovarian): 16.6 µM | GI50 (OVCAR-3 ovarian): 0.404 µM | TGI (OVCAR-3 ovarian): 2.89 µM | GI50 (SK-MEL-28 melanoma): 3.13 µM | TGI (SK-MEL-28 melanoma): 19.9 µM | GI50 (SF-295 CNS): 0.362 µM | TGI (SF-295 CNS): 1.41 µM | GI50 (SR leukemia): 0.317 µM | TGI (SR leukemia): 17.7 µM | GI50 (MDA-MB-231 breast): 3.96 µM | TGI (MDA-MB-231 breast): 19.4 µM | GI50 (HOP-62 NSCLC): 1.59 µM | TGI (HOP-62 NSCLC): 17.6 µM
